Laboratory results published in patent publication US20070161652A1, “Fungicidal mixtures” (BASF Aktiengesellschaft, priority 2004, published 2007).

System: Plasmopara viticola
Test: activity against peronospora of grapevines caused by Plasmopara viticola (protective spray test on potted vines)
Assay type: in vivo, Plasmopara viticola on vines of the cultivar "Riesling"
Settings: individual active compound, untreated control 92% infection
Protocol: The active compounds, separately or jointly, were prepared as a stock solution comprising 0.25% by weight of active compound in acetone or DMSO. 1% by weight of the emulsifier Uniperol® EL (wetting agent having emulsifying and dispersant action based on ethoxylated alkylphenols) was added to this solution, and the mixture was diluted with water to the desired concentration.
Use example—activity against peronospora of grapevines caused by Plasmopara viticola Leaves of potted vines of the cultivar “Riesling” were sprayed to runoff point with an aqueous suspension having the concentration of active compound stated below. The next day, the undersides of the leaves were inoculated with an aqueous zoospore suspension of Plasmopara viticola. The grapevines were then initially placed in a water-vapor-saturated chamber at 24° C. for 48 hours and then in a greenhouse at 20-30° C. for 5 days. After this period of time, the plants were again placed in a humid chamber for 16 hours to promote sporangiophore eruption. The extent of the development of the disease on the undersides of the leaves was then determined visually.
The visually determined percentages of infected leaf areas were converted into efficacies in % of the untreated control:
The efficacy (E) is calculated as follows using Abbot's formula: E=(1−[…] )·100 α corresponds to the fungicidal infection of the treated plants in % and β corresponds to the fungicidal infection of the untreated (control) plants in % An efficacy of 0 means that the infection level of the treated plants corresponds to that of the untreated control plants; an efficacy of 100 means that the treated plants were not infected.
The expected efficacies of mixtures of active compounds were determined using Colby's formula (Colby, S. R. “Calculating synergistic and antagonistic responses of herbicide combinations”, Weeds, 15, 20-22, 1967) and compared with the observed efficacies.
Colby's formula: E=x+y−x·y/100
E expected efficacy, expressed in % of the untreated control, when using the mixture of the active compounds A and B at the concentrations a and b x efficacy, expressed in % of the untreated control, when using the active compound A at the concentration a y efficacy, expressed in % of the untreated control, when using the active compound B at the concentration b

Row | Structure (SMILES) | Efficacy in % of the untreated control (4 ppm in the spray liquor) | Efficacy in % of the untreated control (16 ppm in the spray liquor) | Efficacy in % of the untreated control (63 ppm in the spray liquor)
1 | OC(c1ccc(Cl)cc1)(c1cncnc1)c1ccccc1Cl (stereo not shown) [compound II, (4-chlorophenyl)(2-chlorophenyl)pyrimidin-5-ylmethanol] | 2% | 2% | 2%
2 | CC1CCN(c2c(-c3c(F)cc(F)cc3F)c(Cl)nc3ncnn23)CC1 [compound I, 5-chloro-7-(4-methylpiperidin-1-yl)-6-(2,4,6-trifluorophenyl)-[1,2,4]triazolo[1,5-a]pyrimidine] | – | 56% | –
